Measurements as given in patent publication US20250051316A1, “2-(ARYL-2-YL) […] […], PREPARATION METHOD THEREFOR AND APPLICATION THEREOF” (SHANGHAI HANSOH BIOMEDICAL CO., LTD., priority 2021, published 2025).

Experiment: Pharmacokinetic assay of Balb/c mice, plasma and brain, oral
Format: in vivo
Conditions: male, mouse, p.o. 5 mg/kg
Method: Test Example 3. Pharmacokinetic Assay of Balb/c Mice
Balb/c Mice were used as test animals. The pharmacokinetic behavior of the compounds of the present invention was studied in the plasma and brain of mice administered orally at the dose of 5 mg/kg.
Balb/c Mice, male, Shanghai Jiesijie Experimental Animal Co., Ltd., animal production license number (SCXK (Shanghai) 2013-0006 N0.311620400001794).
After fasting overnight, 24 male Balb/c mice were administered p.o. at a dose of 5 mg/kg and an administration volume of 10 mL/kg, respectively.
Drug formulation for oral administration: 0.5% CMC-Na (1% Tween 80).
After CO2 euthanasia of experimental animals, heart blood and brain tissue were collected at 0.25 h, 0.5 h, 1 h, 2 h, 4 h, 6 h, 8 h, and 24 h after administration. The blood was placed in EDTA-2K tubes and centrifuged at 4° C. and 6000 rpm for 6 minutes to separate plasma. The brain tissue was washed with pre-cooled PBS, dried, weighed, and stored at −80° C. The animals were feed 4 hours after administration.
1) 160 μL of acetonitrile was added to 40 μL of the plasma sample for precipitation, and then the mixture was centrifuged at 3500×g for 5-20 min.
2) 100 μL of the supernatant was taken to analyze the concentration of the test compound by LC/MS/MS.
• Liquid chromatography condition: Shimadzu LC-20AD pump • Mass spectrometry condition: AB Sciex API 4000 mass spectrometer • Chromatographic column: phenomenex Gemiu 5 μm C18 50×4.6 mm • Mobile phase: Eluent A was 0.10% formic acid in water, and Eluent B was acetonitrile • Flow rate: […] • Elution time: 0-4.0 minutes, the eluent is as follows:
The main pharmacokinetic parameters were calculated using WinNonlin8.1, and the results of the pharmacokinetic experiments in mouse are shown in the table below.

Row | Compound | AUC(0-t) (Brain) | Cmax (Brain) | Tmax (Brain) | half-life (Brain) | AUC(0-t) (Plasma) | Cmax (Plasma) | Tmax (Plasma) | half-life (Plasma)
1 | [2H]C1([2H])CO[C@H](c2ccc(F)cc2)CN1 (single isomer, unassigned) [Example 33-1, 2-(4-Fluorophenyl)morpholin-5,5-d2] | 15300 ng·h/mL | 8360 ng/mL | 15 min | 192 min | 5030 ng·h/mL | 1970 ng/mL | 15 min | 192 min
2 | [2H]C1([2H])CO[C@@H](c2ccc(F)cn2)CN1 (single isomer, unassigned) [Example 17-2, 2-(5-fluoropyridin-2-yl)morpholin-5,5-d2] | 7500 ng·h/mL | 3160 ng/mL | 30 min |  | 2630 ng·h/mL | 1450 ng/mL | 15 min | 78 min
3 | [2H]C1([2H])COC(c2cccc(C)n2)CN1 (single isomer, unassigned) [Example 10-2, 2-(6-Methylpyridin-2-yl)morpholin-5,5-d2] | 12500 ng·h/mL | 3540 ng/mL | 30 min | 150 min | 5430 ng·h/mL | 1320 ng/mL | 15 min | 144 min
